Results reported in patent US12630528B2, “Amino aryl derivative useful as diacylglycerol acyltransferase 2 inhibitor and use thereof” (LG CHEM, LTD., priority 2019, dated 2026).

target: T1, human DGAT2 (Homo sapiens, UniProt Q96PD7); assay: DGAT2 enzyme activity inhibition, Phospholipid FlashPlate SPA; format: biochemical; conditions: recombinant human DGAT2 membrane protein from Sf-21 cells; inhibition of [14C]-TG production; 37° C.
T1 construct: FLAG (DYKDDDDK); made in house; host or cells: Sf-21 insect cells (BacPAK baculovirus system); membrane fraction used
T1 sequence (Q96PD7 1-388): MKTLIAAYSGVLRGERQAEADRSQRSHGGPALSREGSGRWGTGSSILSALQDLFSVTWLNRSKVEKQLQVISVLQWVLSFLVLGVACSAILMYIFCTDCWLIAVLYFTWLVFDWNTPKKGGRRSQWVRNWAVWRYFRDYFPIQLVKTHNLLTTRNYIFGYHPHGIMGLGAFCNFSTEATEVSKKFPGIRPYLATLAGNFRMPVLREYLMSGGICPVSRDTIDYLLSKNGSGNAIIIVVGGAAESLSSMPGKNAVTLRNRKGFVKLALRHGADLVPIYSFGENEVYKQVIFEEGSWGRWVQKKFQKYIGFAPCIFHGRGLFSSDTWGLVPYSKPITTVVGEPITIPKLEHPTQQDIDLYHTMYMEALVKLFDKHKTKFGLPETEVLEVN
Procedure, shortened: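 Sf-21 membranes expressing recombinant human DGAT2 (2 μg) preincubated with compound (3 nM–10 μM, 1% DMSO) and 50 μM 1,2 sn-oleoyl glycerol, 20 min at 37 °C, then 1 μM [14C]oleoyl-CoA for 15 min. [14C]-TG counted by SPA; inhibition as % of untreated.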

| SMILES | IC50 |
| --- | --- |
| CCOc1cccnc1O[C@@H]1CCCN(c2ccnc(Nc3nccc(-c4ccc(CC(C)(C)C(=O)O)cc4)n3)n2)C1 [Example 157, (R)-3-(4-(2-((4-(3-((3-ethoxypyridin-2-yl)oxy)piperidin-1-yl)pyrimidin-2-yl)amino)pyrimidin-4-yl)phenyl)-2,2-dimethylpropanoic Acid] | 0.72 µM |
| CCOc1ccccc1O[C@@H]1CCCN(c2cncc(Nc3cncc(-c4cccc(CC(C)(C)C(=O)O)c4)c3)n2)C1 [Example 47, (R)-3-(3-(5-((6-(3-(2-ethoxyphenoxy)piperidin-1-yl)pyrazin-2-yl)amino)pyridin-3-yl)phenyl)-2,2-dimethylpropanoic Acid] | > 10 µM |
| CCOc1ccccc1O[C@@H]1CCCN(c2cncc(Nc3ncc(C(=O)O)s3)n2)C1 [Example 1, (R)-2-((6-(3-(2-ethoxyphenoxy)piperidin-1-yl)pyrazin-2-yl)amino)thiazole-5-carboxylic Acid] | 6.2 µM |
| CCOc1ccccc1O[C@@H]1CCCN(c2cncc(Nc3cc(-c4cccc(CCC(=O)O)c4)ccn3)n2)C1 [Example 46, (R)-3-(3-(2-((6-(3-(2-ethoxyphenoxy)piperidin-1-yl)pyrazin-2-yl)amino)pyridin-4-yl)phenyl)propanoic Acid] | 1.8 µM |
| CCOc1ccccc1O[C@@H]1CCCN(c2cncc(Nc3nc4cc(C(C)(C)C(=O)O)ccc4o3)n2)C1 [Example 13, (R)-2-(2-((6-(3-(2-ethoxyphenoxy)piperidin-1-yl)pyrazin-2-yl)amino)benzo[d]oxazol-5-yl)-2-methylpropanoic Acid] | 0.96 µM |
| CCOc1ccccc1O[C@@H]1CCCN(c2cncc(Nc3ncc(C(=O)O)cn3)n2)C1 [Example 114, (R)-2-((6-(3-(2-ethoxyphenoxy)piperidin-1-yl)pyrazin-2-yl)amino)pyrimidine-5-carboxylic Acid] | > 10 µM |
| CCOc1ccccc1O[C@@H]1CCCN(c2cncc(Nc3nc(-c4ccccc4)co3)n2)C1 [Example 9, (R)—N-(6-(3-(2-ethoxyphenoxy)piperidin-1-yl)pyrazin-2-yl)-4-phenyloxazol-2-amine] | 2.3 µM |
| CCOc1ccccc1O[C@@H]1CCCN(c2cncc(Nc3ncccc3C(=O)O)n2)C1 [Example 34, (R)-2-((6-(3-(2-ethoxyphenoxy)piperidin-1-yl)pyrazin-2-yl)amino)nicotinic Acid] | > 10 µM |
| CCOc1cccnc1O[C@@H]1CCCN(c2cncc(Nc3cccc(-c4ccc(NCC(=O)O)cc4)n3)n2)C1 [Example 74, (R)-(4-(6-((6-(3-((3-ethoxypyridin-2-yl)oxy)piperidin-1-yl)pyrazin-2-yl)amino)pyridin-2-yl)phenyl)glycine] | 0.98 µM |
| CCOc1ccccc1O[C@@H]1CCCN(c2cncc(Nc3cccc(N4CCC[C@H](OCC(=O)O)C4)n3)n2)C1 [Example 59] | 3.7 µM |
| CCOc1ccccc1O[C@@H]1CCCN(c2cncc(Nc3nccc(N4CCC(C(=O)O)C4)n3)n2)C1 (stereo partly drawn) [Example 118, 1-(2-((6-((R)-3-(2-ethoxyphenoxy)piperidin-1-yl)pyrazin-2-yl)amino)pyrimidin-4-yl)pyrrolidine-3-carboxylic Acid] | 2 µM |
| CCOc1ccccc1O[C@@H]1CCCN(c2cncc(Nc3ccc(C(C)(C)C(=O)O)cc3)n2)C1 [Example 27, (R)-2-(4-((6-(3-(2-ethoxyphenoxy)piperidin-1-yl)pyrazin-2-yl)amino)phenyl)-2-methylpropanoic Acid] | > 10 µM |
| CCOc1ccccc1O[C@@H]1CCCN(c2nccc(Nc3nccc(-c4cccc(CC(C)(C)C(=O)O)c4)n3)n2)C1 [Example 149, (R)-3-(3-(2-((2-(3-(2-ethoxyphenoxy)piperidin-1-yl)pyrimidin-4-yl)amino)pyrimidin-4-yl)phenyl)-2,2-dimethylpropanoic Acid] | 5 µM |
| CCOc1ccccc1O[C@@H]1CCCN(c2cncc(Nc3cccc(Oc4ccc(CC(=O)O)cc4)n3)n2)C1 [Example 97, (R)-2-(4-((6-((6-(3-(2-ethoxyphenoxy)piperidin-1-yl)pyrazin-2-yl)amino)pyridin-2-yl)oxy)phenyl)acetic Acid] | 0.9 µM |
| CCOc1ccccc1O[C@@H]1CCCN(c2cncc(Nc3cccc(Oc4ccc(C(=O)O)cc4)n3)n2)C1 [Example 89, (R)-4-((6-((6-(3-(2-ethoxyphenoxy)piperidin-1-yl)pyrazin-2-yl)amino)pyridin-2-yl)oxy)benzoic Acid] | 1.2 µM |

The next compounds have a lower IC50 than those just listed; values first:

| IC50 | SMILES |
| --- | --- |
| 0.59 µM | CCOc1ccccc1O[C@@H]1CCCN(c2cncc(Nc3nccc(N4CCC[C@@H](C(=O)O)C4)n3)n2)C1 [Example 121, (R)-1-(2-((6-((R)-3-(2-ethoxyphenoxy)piperidin-1-yl)pyrazin-2-yl)amino)pyrimidin-4-yl)piperidine-3-carboxylic Acid] |
| 0.51 µM | CCOc1ccccc1O[C@@H]1CCCN(c2cncc(Nc3cccc(N4CCC(C)(C(=O)O)C4)n3)n2)C1 (stereo partly drawn) [Example 53, 1-(6-((6-((R)-3-(2-ethoxyphenoxy)piperidin-1-yl)pyrazin-2-yl)amino)pyridin-2-yl)-3-methylpyrrolidine-3-carboxylic Acid] |
| 0.44 µM | CCOc1ccccc1O[C@@H]1CCCN(c2cncc(Nc3cc(C(C)(C)C(=O)O)ccn3)n2)C1 [Example 35, (R)-2-(2-((6-(3-(2-ethoxyphenoxy)piperidin-1-yl)pyrazin-2-yl)amino)pyridin-4-yl)-2-methylpropanoic Acid] |
| 0.42 µM | CCOc1ccccc1O[C@@H]1CCCN(c2cncc(Nc3ccnc(-c4cccc(C(C)(C)C(=O)O)c4)n3)n2)C1 [Example 168, (R)-2-(3-(4-((6-(3-(2-ethoxyphenoxy)piperidin-1-yl)pyrazin-2-yl)amino)pyrimidin-2-yl)phenyl)-2-methylpropanoic Acid] |
| 0.39 µM | CCOc1ccccc1O[C@@H]1CCCN(c2cncc(Nc3nccc(-c4cccc(CC(C)(C)C(=O)O)c4)n3)n2)C1 [Example 146, (R)-3-(3-(2-((6-(3-(2-ethoxyphenoxy)piperidin-1-yl)pyrazin-2-yl)amino)pyrimidin-4-yl)phenyl)-2,2-dimethylpropanoic Acid] |
| 0.35 µM | CCOc1cccnc1O[C@@H]1CCCN(c2cncc(Nc3nc(-c4cc(CC(C)(C)C(=O)O)ccc4F)ccc3F)n2)C1 [Example 108, (R)-3-(3-(6-((6-(3-((3-ethoxypyridin-2-yl)oxy)piperidin-1-yl)pyrazin-2-yl)amino)-5-fluoropyridin-2-yl)-4-fluorophenyl)-2,2-dimethylpropanoic Acid] |
| 0.25 µM | CCOc1ccccc1O[C@@H]1CCCN(c2cncc(Nc3ccnc(-c4cccc(CC(C)(C)C(=O)O)c4)n3)n2)C1 [Example 170, (R)-3-(3-(4-((6-(3-(2-ethoxyphenoxy)piperidin-1-yl)pyrazin-2-yl)amino)pyrimidin-2-yl)phenyl)-2,2-dimethylpropanoic Acid] |
| 0.17 µM | CCOc1ccccc1O[C@@H]1CCCN(c2cncc(Nc3cc(C(F)(F)F)cc(-c4cccc(CC(C)(C)C(=O)O)c4)n3)n2)C1 [Example 110, (R)-3-(3-(6-((6-(3-(2-ethoxyphenoxy)piperidin-1-yl)pyrazin-2-yl)amino)-4-(trifluoromethyl)pyridin-2-yl)phenyl)-2,2-dimethylpropanoic Acid] |
| 0.087 µM | CCOc1cccnc1O[C@@H]1CCCN(c2cncc(Nc3cccc(Oc4cccc(CC(=O)O)c4)n3)n2)C1 [Example 96, (R)-2-(3-((6-((6-(3-((3-ethoxypyridin-2-yl)oxy)piperidin-1-yl)pyrazin-2-yl)amino)pyridin-2-yl)oxy)phenyl)acetic Acid] |
